Source: PMC12525728, “Safety, Pharmacokinetics, Translational and Molecular Mechanistic Insights on the Prostate Cancer Recurrence Suppressor Pseurotin A” (Molecules, 2025)

Tests used:
[1] = Pharmacokinetics study in Swiss albino mice; assay type: in vivo; conditions: following oral dosing
[2] = system: Swiss albino mice; parameters: method as in PMID 36771126; conditions: cited from earlier work

SMILES: CC/C=C\[C@H](O)[C@H](O)C1=C(C)C(=O)[C@]2(O1)C(=O)N[C@@](OC)(C(=O)c1ccccc1)[C@@H]2O [PsA, pseurotin A]
- plasma detectability by validated HPLC method [1]: not detectable in the plasma
- decrease in body weight ([2]; 500 mg/kg female dosing group, oral gavage, after 14 days): 45%
- major organ toxicity (liver, lung, heart, brain, kidneys) ([2]; 14-day acute toxicity, 10, 250 and 500 mg/kg oral gavage): neither major organ toxicity
- LD50 ([2]; Up-and-Down acute toxicity procedure, oral, male and female Swiss albino mice): > 550 mg/kg
